Data: ChEMBL document CHEMBL1157539, “Thousands of chemical starting points for antimalarial lead identification” (Nature, 2010)
“And” between values parts separate entries of the source, which are not always exact repeats. Equal entries are not always repeated.

Test system: Plasmodium falciparum
Assay: GSK_TCMDC: Inhibition of Plasmodium falciparum 3D7 in whole erythrocytes, using parasite LDH activity as an index of growth.
Format: functional, organism-based

Row | Structure (SMILES) | XC50 | XC50 (Plasmodium falciparum, 3D7) [nM]
1 | O=C(/C=C/c1ccc([N+](=O)[O-])cc1)NC1CCC(CN2CCC(c3c[nH]c4ccccc34)CC2)CC1 (stereo unspecified) | 835 nM | 794
2 | O[C@@H](c1cc(C(F)(F)F)nc2c(C(F)(F)F)cccc12)[C@H]1CCCCN1 | 69.2 nM | 73.7
3 | N#Cc1ccc2c(c1)CN(CC[C@H]1CC[C@H](NC(=O)/C=C/c3c[nH]c4ccccc34)CC1)CC2 | 897 nM | 986
4 | Cc1[nH]c(C)c(-c2ccc(Oc3ccc(OC(F)(F)F)cc3)cc2)c(=O)c1Br | 563 nM and 112 nM | 
5 | COc1ccc2ncc(F)c(C(O)CN3CCC(NCc4ccc5c(n4)NC(=O)CO5)CC3)c2c1 (stereo unspecified) | 1110 nM and 367 nM | 
6 | C/C=C1\CN2CC[C@H]1C[C@H]2[C@H](O)c1ccnc2ccc(OC)cc12 | 219 nM | 
7 | CCC(CC(NCCCCNC(=O)c1ccc(NC(=O)c2ccc(Cl)cc2)cc1)c1ccccc1)c1ccccc1OC (stereo unspecified) | 666 nM | 792
8 | Cn1nc(-c2ccc(S(=O)(=O)NC3CCC(CN4CCC(c5c[nH]c6ccccc56)CC4)CC3)s2)cc1C(F)(F)F (stereo unspecified) | 835 nM | 820
9 | O=C1Nc2cccc3c2C1(CCCCN1CCC(c2cc4ccncc4[nH]2)CC1)CCC3 (stereo unspecified) | 911 nM | 787
10 | O=C(/C=C/c1cccc(F)c1)NC1CCC(CN2CCC(c3c[nH]c4ccccc34)CC2)CC1 (stereo unspecified) | 866 nM | 713
11 | O=C(/C=C/c1cccc(Cl)c1)NC1CCC(CN2CCC(c3c[nH]c4ccccc34)CC2)CC1 (stereo unspecified) | 721 nM | 752
12 | O=C(/C=C/c1ccc(Cl)cc1)NC1CCC(CN2CCC(c3c[nH]c4ccccc34)CC2)CC1 (stereo unspecified) | 800 nM | 727
13 | CC1=C(C(=O)NC2CCC(CN3CCC(c4c[nH]c5ccccc45)CC3)CC2)Cc2ccccc21 (stereo unspecified) | 833 nM | 996
14 | COc1cccc(/C=C/C(=O)NC2CCC(CN3CCC(c4c[nH]c5ccccc45)CC3)CC2)c1 (stereo unspecified) | 834 nM | 765
15 | Cc1ccc(CC(C)NCC(O)c2cccc(C(F)(F)F)c2)cc1 (stereo unspecified) | 709 nM | 
16 | CC(=O)Nc1ccc2[nH]cc(C3CCN(CC4CCC(NC(=O)/C=C/c5ccc(Cl)c(Cl)c5)CC4)CC3)c2c1 (stereo unspecified) | 441 nM | 719
17 | O=C(CCc1ccc(Cl)cc1Cl)NC1CCC(CN2CCC(c3c[nH]c4ccccc34)CC2)CC1 (stereo unspecified) | 216 nM and 903 nM | 
18 | O=C(/C=C/c1ccc(Cl)c(Cl)c1)NCCCCCN1CCC(c2c[nH]c3ccccc23)C(O)C1 (stereo unspecified) | 819 nM | 795
19 | FC(F)(F)c1ccc(NC(=S)NC2CCC(CN3CCC(c4c[nH]c5ccccc45)CC3)CC2)cc1 (stereo unspecified) | 726 nM | 392

Row | Structure (SMILES) | XC50 | XC50 (Plasmodium falciparum, 3D7) [nM]
20 | O=C(C=Cc1cccc(Cl)c1Cl)NC1CCC(CN2CCC(c3c[nH]c4ccccc34)CC2)CC1 (stereo unspecified) | 1140 nM | 680
21 | O=C(/C=C/c1ccc(C(F)(F)F)cc1)NC1CCC(CN2CCC(c3c[nH]c4ccccc34)CC2)CC1 (stereo unspecified) | 964 nM and 369 nM | 
22 | N#Cc1c(Cl)cccc1Oc1ccc(S(=O)(=O)NC2CCC(CN3CCC(c4c[nH]c5ccccc45)CC3)CC2)cc1 (stereo unspecified) | 714 nM | 1070
23 | O=C(Nc1ccccc1Cl)NC1CCC(CN2CCC(c3c[nH]c4ccccc34)CC2)CC1 (stereo unspecified) | 753 nM | 803
24 | O=C(Nc1ccccc1C(F)(F)F)NC1CCC(CN2CCC(c3c[nH]c4ccccc34)CC2)CC1 (stereo unspecified) | 946 nM | 784
25 | O=C(/C=C/c1ccc(Cl)c(Cl)c1)NC1CCC(CN2CCC(c3c[nH]c4ccc(O)cc34)CC2)CC1 (stereo unspecified) | 417 nM and 140 nM | 
26 | Cc1ccc2[nH]cc(C3CCN(CC4CCC(NC(=O)/C=C/c5ccc(Cl)c(Cl)c5)CC4)CC3)c2c1 (stereo unspecified) | 552 nM | 840
27 | NC(=O)c1ccc2[nH]cc(C3CCN(CC4CCC(NC(=O)/C=C/c5ccc(Cl)c(Cl)c5)CC4)CC3)c2c1 (stereo unspecified) | 867 nM | 761
28 | S=C(NCCc1ccc(Cl)cc1)NC1CCC(CN2CCC(c3c[nH]c4ccccc34)CC2)CC1 (stereo unspecified) | 703 nM | 703
29 | O=C(C=Cc1ccccc1C(F)(F)F)NC1CCC(CN2CCC(c3c[nH]c4ccccc34)CC2)CC1 (stereo unspecified) | 902 nM | 677
30 | O=C(C=Cc1ccc(F)c(Br)c1)NC1CCC(CN2CCC(c3c[nH]c4ccccc34)CC2)CC1 (stereo unspecified) | 842 nM | 789
31 | O=C(NC1CCC(CN2CCC(c3c[nH]c4ccccc34)CC2)CC1)c1cc2ccccc2s1 (stereo unspecified) | 725 nM | 729
32 | Cc1c(C)c2c(c(C)c1O)CC[C@](C)(C(=O)NC1CCC(CN3CCC(c4c[nH]c5ccccc45)CC3)CC1)O2 (stereo partly specified) | 1120 nM | 881
33 | O=C(Nc1cccc(-c2cccc(-c3nc4ccccc4[nH]3)c2)c1)NC1CC1c1ccccc1 (stereo unspecified) | 898 nM | 1070
34 | CC(C)(C)c1cc(/C=C/C(=O)NC2CCC(CN3CCC(c4c[nH]c5ccccc45)CC3)CC2)cc(C(C)(C)C)c1O (stereo unspecified) | 719 nM | 705
35 | Cc1cc(=O)c(-c2ccc(Oc3cccc(C(F)(F)F)c3)cc2)c(C)[nH]1 | 629 nM and 209 nM | 
36 | O=C(/C=C/c1ccc(Cl)c(Cl)c1)NC1CCC(CN2CCC(c3c[nH]c4cc(C(F)(F)F)ccc34)CC2)CC1 (stereo unspecified) | 278 nM and 897 nM | 
37 | S=C(Nc1ccc2c(c1)OCCO2)NC1CCC(CN2CCC(c3c[nH]c4ccccc34)CC2)CC1 (stereo unspecified) | 1000 nM | 653
38 | Cc1ccc(/C=C/C(=O)NC2CCC(CN3CCC(c4c[nH]c5ccccc45)CC3)CC2)cc1 (stereo unspecified) | 798 nM | 920

Row | Structure (SMILES) | XC50 | XC50 (Plasmodium falciparum, 3D7) [nM]
39 | CSc1nccc(-c2ccc(S(=O)(=O)NC3CCC(CN4CCC(c5c[nH]c6ccccc56)CC4)CC3)s2)n1 (stereo unspecified) | 811 nM and 254 nM | 
40 | O=C(/C=C/c1ccc(Cl)c(Cl)c1)NCCCCCN1C2CCC1CC(c1c[nH]c3ccc(O)cc13)C2 (stereo unspecified) | 879 nM | 998
41 | O=C(Nc1ccccc1OC(F)(F)F)NC1CCC(CN2CCC(c3c[nH]c4ccccc34)CC2)CC1 (stereo unspecified) | 369 nM and 800 nM | 
42 | O=C(C=Cc1ccccc1Br)NC1CCC(CN2CCC(c3c[nH]c4ccccc34)CC2)CC1 (stereo unspecified) | 687 nM | 737
43 | O=C(C=C1c2ccccc2-c2ccccc21)NC1CCC(CN2CCC(c3c[nH]c4ccccc34)CC2)CC1 (stereo unspecified) | 697 nM | 795
44 | COC(=O)c1sccc1NC(=S)NC1CCC(CN2CCC(c3c[nH]c4ccccc34)CC2)CC1 (stereo unspecified) | 574 nM | 915
45 | O=C(/C=C/c1ccccc1O)NC1CCC(CN2CCC(c3c[nH]c4ccccc34)CC2)CC1 (stereo unspecified) | 461 nM | 756
46 | COc1ccc(C=CC(=O)NC2CCC(CN3CCC(c4c[nH]c5ccccc45)CC3)CC2)cc1OC (stereo unspecified) | 841 nM | 801
47 | COc1ccc(-c2ccccc2)cc1NC(=S)NC1CCC(CN2CCC(c3c[nH]c4ccccc34)CC2)CC1 (stereo unspecified) | 740 nM | 652
48 | COC(=O)c1ccc(CC(C)NCC(O)c2cccc(C(F)(F)F)c2)cc1 (stereo unspecified) [listing 1 of 2 here] | 765 nM | 
49 | Oc1cccc(-c2nc3cc(C4=NC5CCCCC5N4)ccc3[nH]2)c1 (stereo unspecified) | 530 nM | 
50 | COC(=O)/C=C/c1ccc(CC(C)NCC(O)c2cccc(C(F)(F)F)c2)cc1 (stereo unspecified) | 775 nM | 
51 | Cc1ccc(/C=C/C(=O)NC2CCC(CN3CCC(c4c[nH]c5ccccc45)CC3)CC2)cc1C (stereo unspecified) | 821 nM | 832
52 | COc1ccc2ncc(F)c(CCN3CC(O)C(CNCc4nc5c(cc4Cl)OCC(=O)N5)C3)c2n1 (stereo unspecified) | 1280 nM and 954 nM | 830
53 | COc1ccc(C[C@@H](C)NC[C@H](O)c2cccc(Cl)c2)cc1F | 992 nM | 
54 | COC(=O)c1ccc(CC(C)NCC(O)c2cccc(C(F)(F)F)c2)cc1 (stereo unspecified) [listing 2 of 2 here] | 974 nM | 1150
55 | Cc1ccc(CC(C)NC[C@H](O)c2cccc(Cl)c2)cc1 (stereo partly specified) | 927 nM | 
56 | NC1=NC(c2ccccc2)(c2cccc(O)c2)C(=O)N1CCCc1ccccc1 (stereo unspecified) | 836 nM | 1230
